From PMC7380640, “Development of a brain-permeable peptide nanofiber that prevents aggregation of Alzheimer pathogenic proteins” (PLoS ONE, 2020)
Where a SMILES comes first, the peptide text is derived from it.

Experiments:
Aβ (1–42) = details: 100 nM of Aβ (1–42); cited from earlier work
Method: The neutral αAC nanofibers suppressed aggregation of Aβ (1–42), without promoting the aggregation of 3RMBDof tau (Fig 2) and cytotoxicity of Aβ (1–42) against PC12 cells (Fig 7). Several brain-permeable low molecular weight compounds that suppress the aggregation of amyloidβ have been proposed as therapeutic drugs for AD [48–55]; unfortunately, the affinity of these compounds for Aβ tends to be low. For example, >100 nM of curcumin is required to inhibit the cytotoxicity of 100 nM of Aβ (1–42).

trypsin = molecular target: T1, trypsin (Bos taurus, UniProt P00760); experiment: Proteolytic digestion with trypsin (GPC); assay type: in vitro ADME; details: 200 μM peptide or nanofiber, 12 μM trypsin (type XIII, bovine pancreas), 5 mM phosphate 100 mM NaCl pH 7.5, 37°C, GPC peak of FVIFLDVK, A220
T1 construct: purchased type XIII; host or cells: bovine pancreas
T1 sequence (P00760 24-246): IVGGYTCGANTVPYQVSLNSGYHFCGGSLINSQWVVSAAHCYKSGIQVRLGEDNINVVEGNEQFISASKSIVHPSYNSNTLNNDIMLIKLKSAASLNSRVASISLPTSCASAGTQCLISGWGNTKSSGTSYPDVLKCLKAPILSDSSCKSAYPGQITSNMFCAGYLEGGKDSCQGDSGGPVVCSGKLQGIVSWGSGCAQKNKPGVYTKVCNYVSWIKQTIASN
Method: The αAC peptides or the neutralαAC nanofiber (200 μM) were incubated with trypsin (12 μM, type XIII from bovine pancreas) in 5 mM phosphate buffer containing 100 mM NaCl (pH 7.5) at 37°C. The molecular mass of the digested peptides were analyzed with MALDI-TOF mass spectroscopy using a BrukerAutoflex Speed instrument. The proteolyzed sample of αAC nanofibers was centrifuged (10,000g for 5 min) to separate the peptide fragments from the nanofibers. The apparent rate of proteolysis of αAC(71–88) was estimated from gel permeation chromatography analysis using a Superdex^TMpeptide 10/300 GL column (GE Healthcare, Piscataway, NJ). Water including 30% acetonitrile and 0.1% TFA was used as the elution solvent.

Aβ peptides = details: cited from earlier work
Description: (§1) Alzheimer’s disease (AD) is a progressive neurodegenerative disorder and the most common form of dementia characterized by senile plaque (SP), which is the extracellular deposit of amyloidβ(Aβ)aggregates,and neurofibrillary tangle, which is the intracellular accumulation of phosphorylated tau protein [3]. Although highly ordered linear Aβaggregates, known as amyloid fibrils, are the major component of SP and one of the hallmark features of AD, soluble oligomers of aggregates are regarded as more cytotoxic. The therapeutic use of peptide inhibitors of pathological ...

[1] = tested on: rat pheochromocytoma (PC12); details: cited from earlier work
Description: as §1

## COc1cc(/C=C/C(=O)CC(=O)/C=C/c2ccc(O)c(OC)c2)ccc1O [curcumin]
Aβ (1–42)
  concentration required to inhibit the cytotoxicity of Aβ (1–42): > 100 nM

## CC[C@H](C)[C@H](NC(=O)[C@@H](NC(=O)[C@@H](N)Cc1ccccc1)C(C)C)C(=O)N[C@@H](Cc1ccccc1)C(=O)N[C@@H](CC(C)C)C(=O)N[C@@H](CC(=O)O)C(=O)N[C@H](C(=O)N[C@@H](CCCCN)C(=O)N[C@@H](Cc1c[nH]cn1)C(=O)N[C@@H](Cc1ccccc1)C(=O)N[C@@H](CO)C(=O)N1CCC[C@H]1C(=O)N[C@@H](CCC(=O)O)C(=O)N[C@@H](CC(=O)O)C(=O)N[C@@H](CC(C)C)C(=O)N[C@H](C(=O)N[C@H](C(=O)N[C@@H](CCCCN)C(=O)O)C(C)C)[C@@H](C)O)C(C)C [αAC(71–88)] (H-FVIFLDVKHFSPEDLTVK-OH)
trypsin
  fraction of αAC(71–88) digested (single cleavage) after 24 h proteolysis: ca. 90%

## DFVIFLDVKHFSPEDLTVK
Aβ peptides
  effect on fibril formation of Aβ peptides: inhibit fibril formation
[1]; rat pheochromocytoma (PC12)
  effect on toxicity of Aβ in PC12: suppress the toxicity

## DFVIFLDVKHFSPEDLTVK [CPP-fused αAC peptides, cell-penetrating peptide-fused type peptides of the αA-crystallin peptide]
Aβ peptides
  effect on Aβ fibril formation: prevented Aβ fibril formation
[1]
  effect on Aβ toxicity: suppress Aβ toxicity
